Inhibition data for one molecule are collected here from ChEMBL document CHEMBL4507293 (2021).

Assay [1] addresses T1, Muscarinic acetylcholine receptor M5 (Homo sapiens) (UniProt P08912).
T1 sequence (whole entry): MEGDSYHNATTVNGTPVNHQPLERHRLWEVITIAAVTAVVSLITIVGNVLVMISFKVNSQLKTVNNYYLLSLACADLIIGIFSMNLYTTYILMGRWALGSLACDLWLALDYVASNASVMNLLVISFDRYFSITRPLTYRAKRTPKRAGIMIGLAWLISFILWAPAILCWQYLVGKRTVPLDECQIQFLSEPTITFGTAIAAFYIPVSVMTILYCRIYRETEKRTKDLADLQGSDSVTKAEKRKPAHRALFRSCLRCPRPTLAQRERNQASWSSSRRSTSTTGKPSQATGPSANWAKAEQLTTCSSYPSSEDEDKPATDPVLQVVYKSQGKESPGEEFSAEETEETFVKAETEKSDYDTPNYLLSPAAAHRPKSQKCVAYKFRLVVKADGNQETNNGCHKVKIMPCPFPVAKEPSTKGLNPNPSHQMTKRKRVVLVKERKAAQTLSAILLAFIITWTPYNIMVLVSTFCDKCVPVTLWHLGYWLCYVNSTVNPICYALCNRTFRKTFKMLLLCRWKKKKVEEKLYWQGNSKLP
The assay can be described thus: Inhibition of Muscarinic M5 at 10 µM in the Eurofins-Panlabs radioligand binding assay (Eurofins_assay_253010). Also noted: ligand concentration 0.8 nM. The settings on record: Compound concentration 10.0 uM.

Assay [2] concerns the target T2, Muscarinic acetylcholine receptor M2 (Homo sapiens) (UniProt P08172).
T2 sequence (whole entry): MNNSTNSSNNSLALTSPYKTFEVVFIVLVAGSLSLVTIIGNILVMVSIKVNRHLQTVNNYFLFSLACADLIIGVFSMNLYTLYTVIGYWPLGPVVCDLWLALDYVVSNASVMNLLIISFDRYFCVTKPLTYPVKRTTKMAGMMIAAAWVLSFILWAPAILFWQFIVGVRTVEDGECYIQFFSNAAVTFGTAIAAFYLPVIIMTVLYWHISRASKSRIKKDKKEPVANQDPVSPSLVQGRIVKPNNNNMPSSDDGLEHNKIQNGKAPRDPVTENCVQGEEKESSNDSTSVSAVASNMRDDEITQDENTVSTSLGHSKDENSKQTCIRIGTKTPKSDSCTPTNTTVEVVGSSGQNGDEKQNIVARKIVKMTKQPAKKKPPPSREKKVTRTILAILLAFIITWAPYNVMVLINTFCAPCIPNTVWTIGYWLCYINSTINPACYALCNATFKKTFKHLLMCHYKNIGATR
The settings on record: Compound concentration 10.0 uM.

Molecules are shown by their SMILES.

Broadly, the inhibition is the share of the control response that was lost under treatment.

For `COCCOc1nc(-c2ccc(Cl)nc2)nc2c1CN(C(=O)c1ncn3ccccc13)CC2` [THPP-1], the inhibition is 1% in assay [1] and 5% in assay [2].
